ChEMBL document CHEMBL1141672, “Novel bradykinin-1 antagonists containing a (1,2,3,4-tetrahydro-isoquinolin-1-yl)acetic acid scaffold” (Eur J Med Chem, 2008)

Assays:
[1] = molecular target: T1, B1 bradykinin receptor (Homo sapiens) (UniProt P46663); assay: Antagonist activity against human recombinant bradykinin B1 receptor expressed in CHO cells assessed as inhibition of [Lys-des-Arg9]bradykinin-induced cytoplasmic calcium release at 5 uM by fluorimetry; assay type: functional, cell-based
T1 sequence (whole entry): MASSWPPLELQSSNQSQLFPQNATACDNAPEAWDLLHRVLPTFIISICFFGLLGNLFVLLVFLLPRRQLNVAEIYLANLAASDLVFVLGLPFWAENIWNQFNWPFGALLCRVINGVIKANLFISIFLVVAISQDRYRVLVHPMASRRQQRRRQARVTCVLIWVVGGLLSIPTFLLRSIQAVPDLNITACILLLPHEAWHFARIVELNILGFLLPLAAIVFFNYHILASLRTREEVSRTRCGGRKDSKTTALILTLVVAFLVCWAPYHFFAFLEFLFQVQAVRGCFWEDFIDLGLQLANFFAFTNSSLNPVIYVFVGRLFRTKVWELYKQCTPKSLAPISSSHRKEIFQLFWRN

B1 bradykinin receptor = molecular target: T2, B1 bradykinin receptor (Homo sapiens, UniProt P46663); assay: Displacement of [3H]Lys-bradykinin from human recombinant bradykinin B1 receptor expressed in CHO cells by scintillation counting; assay type: cell-based
T2 sequence (P46663 whole entry): T1 sequence (whole entry)

COc1cc2c(cc1OC)C(CC(=O)NCCc1ccc(C3=NCCN3)cc1)N(S(=O)(=O)c1ccc(C)cc1)CC2 (racemic)
inhibition [1]: 85.7% | Ki (B1 bradykinin receptor): 2 µM

COc1cc2c(cc1OC)C(CC(=O)NC1CCCCCC1)N(S(=O)(=O)c1ccc(C)cc1)CC2 (racemic)
inhibition [1]: 9.3%

Cc1ccc(S(=O)(=O)N2CCc3ccccc3C2CC(=O)NC2CCCCCC2)cc1 (racemic)
inhibition [1]: 37%

Cc1ccc(S(=O)(=O)N2CCc3ccccc3C2CC(=O)NCCCCNC(=N)N)cc1 (racemic)
inhibition [1]: 44.9%

COc1cc2c(cc1OC)C(CC(=O)NCCCCN)N(S(=O)(=O)c1ccc(C)cc1)CC2 (racemic)
inhibition [1]: 15.3%

COc1cc2c(cc1OC)C(CC(=O)NCCCCCCN)N(S(=O)(=O)c1ccc(C)cc1)CC2 (racemic)
inhibition [1]: 10.9%

Cc1ccc(S(=O)(=O)N2CCc3ccccc3C2CC(=O)NCCCCN)cc1 (racemic)
inhibition [1]: 15.9%

Cc1ccc(S(=O)(=O)N2CCc3ccccc3C2CC(=O)NCCc2ccc(C3=NCCN3)cc2)cc1 (racemic)
inhibition [1]: 99% | Ki (B1 bradykinin receptor): 0.067 µM

Cc1ccc(S(=O)(=O)N2CCc3ccccc3C2CC(=O)NCCCCCCN)cc1 (racemic)
inhibition [1]: 16.3%

COc1cc2c(cc1OC)C(CC(=O)NCCCCNC(=N)N)N(S(=O)(=O)c1ccc(C)cc1)CC2 (racemic)
inhibition [1]: 19%
